row,SMILES,melting point [°C]
1,CN1CCC23c4c5ccc(O[Si](C)(C)C(C)(C)C)c4OC2C(O[Si](C)(C)C(C)(C)C)C=CC3C1C5 (stereo not given),118 to 119
2,c1ccc(-c2nnc(-c3ccc(CN4CCCCCC4)s3)o2)cc1,95 to 97
3,COc1ccc2c(N)cccc2c1C(F)(F)F,120
4,CCOC(=O)C=Cc1cc(C=CC(N)=O)cc(C(O)c2ccc(F)cc2)c1 (stereo not given),197 to 199
5,CCc1cccc(C)c1S(=O)(=O)c1nn(C(=O)N(CC)CC)cc1OC,102 to 104
6,O=c1cc2c(nn1-c1ccc(Cl)cc1)-c1cc(F)ccc1S(=O)CC2 (stereo not given),233 to 235
7,Nc1nnc(C(F)(F)C(Cl)Cl)o1,171
8,CC1(C)Oc2ccc(C#N)cc2[C@H](N)[C@@H]1O (relative stereo),85 to 86
9,CCCCOc1nc(N)c2[nH]c(=O)n(CCCCN(Cc3cccc(CC(=O)O)c3)CC(C)(C)CN(C)C)c2n1,189 to 190
10,COc1cc(N2CCC(N3CCCN(CCO)CC3)CC2)ccc1Nc1ncc2ccc(-c3ccccc3OC)n2n1,72 to 80
11,O=C(O)C1(CSc2ccc(Oc3ccc(Br)cc3)cc2)CCOCC1,143
12,O=C(Nc1ccc(-n2ccnn2)c(F)c1)OCc1ccccc1,121 to 122
13,CC(C)(C)c1ccc(C(=O)Nc2cn3nc(-n4cnc(Br)c4)ccc3n2)cc1,306 to 307
14,CS(=O)(=O)Nc1ccccc1C(=O)Nc1ccc(OCCN2CCCC2)cc1,221 to 222
15,CCOC(=O)c1nc2ccccc2n(CCO)c1=O,137 to 138
16,CC(=O)c1cc(O)cc2cc(-c3ccc(O)cc3)oc12,274 to 276
17,CC(C)(C)[Si](C)(C)OC1CCCc2cnc3cc(OCc4ccccc4[N+](=O)[O-])ccc3c21 (stereo not given),150 to 152
18,COC(=O)c1cc(N)c2nc(C)nn2c1,212
19,C#CCN(Cc1ccc2nc(C)[nH]c(=O)c2c1)c1ccc(C(=O)NCc2cccc([N+](=O)[O-])c2)c(N)c1,86 to 92
20,CC1(CCS)C(=O)N2CC=CC(C(=O)O)N2C1=O (stereo not given),113 to 114
21,CCCCCOC(=O)c1cc(O)nn1-c1ncccc1Cl,172 to 173
22,COc1cccc2c3c(c(=O)[nH]c12)CCN3c1cccc(C)c1,155 to 157
23,CCC1=C(c2cccc(C(F)(F)F)c2)n2ncc(C#N)c2N(C(=O)CCl)C1,150 to 152
24,CN(C)C(N)=C(C#N)C(N)=S,186 to 187
25,CCn1c(=O)c(Oc2ccc(F)cc2F)cc2cnc(NC3CCOCC3)nc21,199 to 206

row,SMILES,melting point [°C]
1,CCOc1ncc(C(C)=O)cc1C(=O)Nc1c(C(N)=O)nn(CC2CC2)c1CC,238 to 240
2,Clc1ccc(-n2ccc(OCCOCCN3CCCCC3)n2)cc1Cl,126 to 128
3,CC(C)(Cc1c[nH]c2ccccc12)NCC(O)COc1ccccc1Cl (stereo not given),150 to 154
4,CCC1c2ncn(C)c2CCN1C(=S)NC(C)C (stereo not given),186
5,COc1cc2nc(NCCNCC(O)COc3ccccc3)nc(N)c2cc1OC (stereo not given),122 to 124
6,O=C1CC2(c3ccccc3)CCCC2C(=O)N1Cc1ccccc1 (stereo not given),77 to 79
7,Cc1ccccc1C(=S)N1CC1C#N (stereo not given),67 to 69
8,COCN(c1c(C)ccc2ccccc12)C1COC(=O)C1 (stereo not given),42 to 46
9,CCCn1c(=O)c2cc(C(=O)O)cn2c2ccccc21,260 to 262
10,COc1cc2c3c(sc2c(Cl)c1Cl)CCCC3,123 to 125
11,CCc1ccc(-c2nn(C)c(=O)c3ccccc23)c(CC)c1,94.5 to 96.5
12,O=c1[nH][nH]c(=O)n1-c1c(F)cc(Cl)c2c1CCCO2,271 to 273
13,CN1c2ccc(-c3cccc4ccccc34)cc2Sc2cc(-c3cccc4ccccc34)ccc21,185 to 190
14,CC1(C)CC(=O)C2=C(C1)NC(c1cccnc1)=NC2c1ccc(F)cc1Cl (stereo not given),186 to 187
15,O=C(O)CCc1cn(Cc2ccc(OCc3ccncc3)cc2)cc1-c1ccccc1,124 to 125
16,Brc1cccc(OCCOc2nccnc2N2CCNCC2)c1,62 to 63
17,NC[C@@H]1CN(c2nc3c(cc2F)c(=O)c(C(=O)O)cn3C2CC2)C[C@@H]1Cl (relative stereo),174 to 177
18,COC(=O)c1cc(OCCCCCCCCCCCCOc2ccccc2)ccc1O,61 to 64
19,N#CC(c1cccc(Cl)c1)N1CCOCC1 (stereo not given),72 to 73
20,COc1ccc(CNc2ncc[nH]2)cc1OC1CCCC1,114 to 115
21,CCCCCCCCCCCCC(C)CNc1cc(C)c([N+](=O)[O-])cc1C(=O)O (stereo not given),98 to 100
22,CC(=O)NC[C@H]1CN(c2ccc3c(c2)C[C@@H](C)N3C(=O)COC(C)=O)C(=O)O1,186 to 187
23,Cc1cccc(C)c1N(CC(C)N1C(=O)c2ccccc2C1=O)S(C)(=O)=O (stereo not given),124 to 127
24,O=C(Nc1ccc2c(c1)CCC(CCN1CCCC1)=C2)c1ccc(-c2ccc(Cl)cc2)cc1,207 to 209
25,COC(=O)/C=C\C(=O)Nc1ccc2c(=O)n3c(nc2c1)C(=Cc1ccccc1)CC3,233 to 235

row,SMILES,melting point [°C]
1,COC(=O)c1cc(OC)cc2cc(-c3ccc(OC)c(F)c3)oc12,121 to 123
2,CC(=O)c1cccc(NC(=O)c2ccc3oc(COCc4ccccc4)cc3c2)c1O,92 to 94
3,CCCCc1cc2cc([N+](=O)[O-])ccc2[nH]1,105
4,CC(=O)Nc1ccc(C=O)cc1Cl,110 to 113
5,CN1CCC(c2c(O)cc(O)c3c(=O)cc(Oc4ccccc4)oc23)C(O)C1 (stereo not given),112
6,CN1CCC(N2C(=O)CN=C(c3ccccc3Cl)c3cc(Cl)ccc32)CC1,146 to 147
7,CCC1c2cccn2-c2ccc(F)cc2N1S(=O)(=O)c1cc(C)c(O)c(C)c1 (stereo not given),216 to 218
8,CCOC(=O)c1ccc(N)c(I)c1,71 to 74
9,COc1cccc(-c2nc3cc(C4=NNC(=O)SC4C)ccc3n2CC(C)C)c1 (stereo not given),100 to 105
10,CC(C)(C)c1ccc(NC(=O)c2ccc(C3(C)OCCCO3)cc2)cc1,148 to 149
11,Cc1ccc(CSc2nc3cc4c(cc3[nH]2)CCC4)nc1,157 to 158
12,COc1ccc(N2CCN(n3cnn(C)c3=O)CC2)cc1,178
13,CC(=O)NC(C(=O)Nc1ccc(C(=O)O)cc1)c1ccc2c(c1)C(C)(C)CCC2(C)C (stereo not given),258 to 259
14,CC(C)n1nc(-c2cnc(N)nc2-c2ccc(Cl)cc2)ccc1=O,195
15,CC(C)OC(=O)C=Cc1ccc(N)cc1,78 to 80
16,COc1ccc(-c2cncc(OC3SCC(O)C(O)C3O)c2)cc1 (stereo not given),216
17,O=C(O)c1ccc(C(F)(F)F)cc1[N+](=O)[O-],136 to 138
18,COC(=O)[C@H](Cc1ccc(OCCCN(C)Cc2ccccc2)cc1)NC(=O)[C@@H]1CCCN1S(=O)(=O)c1ccc(C)cc1,60 to 70
19,CCN1C(=O)c2sccc2N(C)c2ncccc21,119 to 120
20,CC1=NC(NC(=O)Nc2cccc(C)c2)C(=O)N(CC(=O)C2CCCCCC2)c2c(C)cccc21 (stereo not given),171 to 175
21,CC(C)(Oc1c(Br)cc(-c2c3ccccc3c(Br)c3sc4ccccc4c23)cc1Br)C(=O)O,197 to 199
22,Cc1c(CCc2ccccc2)c(=O)oc2cc(OCc3nnn[nH]3)cc(OCc3nnn[nH]3)c12,248 to 250
23,CC(=O)NCCc1coc2ccc3c(c12)CCCO3,162
24,CCSCCOC(=O)C(Br)=Cc1cc(-n2c(=O)cc(C(F)(F)F)n(C)c2=O)ccc1Cl,118 to 120
25,CS(=O)(=O)Nc1ccc(C=CC(=O)N2CCc3c([nH]c4ccccc34)C2c2ccc3c(c2)OCO3)cc1 (stereo not given),203

row,SMILES,melting point [°C]
1,CCCCc1ccc2c(c1)-c1[nH]c(C(=O)OC)cc(=O)c1CS2,144 to 146
2,CC(=O)N1CCC(c2ccc(S(N)(=O)=O)cc2)CC1,196 to 197
3,CCCc1nc(N2CCc3ccccc3CC2)c(C#N)c(=O)[nH]1,191 to 193
4,CN1CCC2(CC1)OC(c1ccccc1)c1cc(O)ccc12 (stereo not given),193 to 200
5,O=C1NC(=O)C(Cc2ccc(OCCOc3ccccc3)cc2)S1 (stereo not given),133
6,CCN(C)CCc1[nH]c2ccccc2c1CSc1ccccc1,77 to 79
7,O=c1[nH]c2cc(Cl)c([N+](=O)[O-])cc2n(C2CCCCC2)c1=O,> 300
8,CCCn1nc(C2CC2)c(C(=O)OCC)c1Cc1ccc(-c2ccccc2S(=O)(=O)NC(C)(C)C)cc1,165 to 168
9,N#Cc1ccc2[nH]cc(CCN)c2c1,102 to 105
10,CC(=O)NCC1CN(c2ccc(N3CCN(c4nc5cc(F)ccc5o4)CC3)c(F)c2)C(=O)O1 (stereo not given),226 to 228
11,O=C(O)c1ccc(OCCC(c2ccccc2)(c2ccccc2)c2ccccc2)cc1,201 to 202
12,COc1cc(COc2cc(CO)n(-c3ccccc3)n2)ccc1OCc1nc(-c2ccccc2)oc1C,146 to 147
13,COCCOC(=O)Cc1cccc(Nc2nccc(-c3sc(N)nc3C)n2)c1,182 to 184
14,CN(C)Cc1cc(C(=O)c2ccc(F)cc2)cc(C(C)(C)C)c1O,112 to 113
15,COC(=O)C(=O)c1ccc(OCCOCCOc2ccccc2)cc1,75 to 76
16,ClCc1nc2ccccc2c2ccnn12,135 to 136
17,CCOC(=O)C(NC(=O)C(C)C)C(=O)Cc1ccc(Cl)cc1Cl (stereo not given),139 to 140
18,c1ccc2c(c1)-c1ccccc1C2CN1CCCCC1,118 to 119
19,CC1=C(C(=O)O)C(c2cccc([N+](=O)[O-])c2)N(C(=O)N(C)C)C(=O)N1 (stereo not given),193 to 195
20,Cc1ccccc1-c1cc(F)cc2c1NC(CN)CO2 (stereo not given),78
21,O=C(NCCNCC1COc2ccccc2O1)C12CC3CC(CC1C3)C2 (stereo not given),143 to 144
22,COC(=O)[C@@H](NS(=O)(=O)c1ccc(Br)cc1)C(C)C,88 to 90
23,Cc1c(C#N)sc2nc(-c3ccc4c(c3)OCO4)nc(N3CCOCC3)c12,197 to 198
24,CCOC(=O)c1cc2c(o1)CNCC2(O)c1ccc(C)cc1 (stereo not given),194 to 196
25,CCc1nc2cc(C(F)(F)F)c(Cl)cc2n1-c1ccc(C[C@H](C)OC(=O)NS(=O)(=O)c2ccc(C)cc2)cc1,200

# Reference: a melting point compilation (Tetko et al.; mined from patent text by program, amines drawn as free bases though some values may be those of a salt)
